# Experimental data taken from publication PMC7846792, “Perception of a divergent family of phytocytokines by the Arabidopsis receptor kinase MIK2” (Nature Communications, 2021).
# No end group written: not given here.
# Tested on: A. thaliana seedlings
# Experiment: Seedling growth inhibition (fresh weight)
# Assay type: in vivo, Arabidopsis thaliana
# Settings: mock mean = 1
# Experimental: Four-day-old seedlings growing on MS plates were transferred individually into separate wells of transparent 48-well tissue culture plates (Greiner Bio-One) containing 500 μL of liquid MS media with/without elicitor addition. The plates were then transferred back to the growth conditions for an additional 10 days before seedlings were blot-dried and weighed.
sequence,measurement,setting,value
GTGPSHSGHGGSS [SCOOP9],"Seedling fresh weight (Fig3C), relative to mock","Col-0, 1 μM, replicate 1",0.7762
same,"Seedling fresh weight (Fig3C), relative to mock","Col-0, 1 μM, replicate 2",0.8462
same,"Seedling fresh weight (Fig3C), relative to mock","Col-0, 1 μM, replicate 3",0.6605
same,"Seedling fresh weight (Fig3C), relative to mock","Col-0, 1 μM, replicate 4",0.7701
same,"Seedling fresh weight (Fig3C), relative to mock","Col-0, 1 μM, replicate 5",0.4809
same,"Seedling fresh weight (Fig3C), relative to mock","Col-0, 1 μM, replicate 6",0.5418
same,"Seedling fresh weight (Fig3C), relative to mock","Col-0, 1 μM, replicate 7",0.6179
same,"Seedling fresh weight (Fig3C), relative to mock","Col-0, 1 μM, replicate 8",0.7457
same,"Seedling fresh weight (Fig3C), relative to mock","Col-0, 1 μM, replicate 9",0.8066
same,"Seedling fresh weight (Fig3C), relative to mock","Col-0, 1 μM, replicate 10",0.831
same,"Seedling fresh weight (Fig3C), relative to mock","Col-0, 1 μM, replicate 11",0.7549
same,"Seedling fresh weight (Fig3C), relative to mock","Col-0, 1 μM, replicate 12",0.7275
same,"Seedling fresh weight (Fig3C), relative to mock","Col-0, 10 μM, replicate 1",0.06065
same,"Seedling fresh weight (Fig3C), relative to mock","Col-0, 10 μM, replicate 2",0.1274
same,"Seedling fresh weight (Fig3C), relative to mock","Col-0, 10 μM, replicate 3",0.1304
same,"Seedling fresh weight (Fig3C), relative to mock","Col-0, 10 μM, replicate 4",0.1061
same,"Seedling fresh weight (Fig3C), relative to mock","Col-0, 10 μM, replicate 5",0.1395
same,"Seedling fresh weight (Fig3C), relative to mock","Col-0, 10 μM, replicate 6",0.08795
same,"Seedling fresh weight (Fig3C), relative to mock","Col-0, 10 μM, replicate 7",0.1759
same,"Seedling fresh weight (Fig3C), relative to mock","Col-0, 10 μM, replicate 8",0.2365
same,"Seedling fresh weight (Fig3C), relative to mock","Col-0, 10 μM, replicate 9",0.1395
same,"Seedling fresh weight (Fig3C), relative to mock","Col-0, 10 μM, replicate 10",0.2032
same,"Seedling fresh weight (Fig3C), relative to mock","Col-0, 10 μM, replicate 11",0.1789
same,"Seedling fresh weight (Fig3C), relative to mock","Col-0, 10 μM, replicate 12",0.1425
same,"Seedling fresh weight (Fig3C), relative to mock","mik2-1, 1 μM, replicate 1",0.8374
same,"Seedling fresh weight (Fig3C), relative to mock","mik2-1, 1 μM, replicate 2",1.059
same,"Seedling fresh weight (Fig3C), relative to mock","mik2-1, 1 μM, replicate 3",0.8173
same,"Seedling fresh weight (Fig3C), relative to mock","mik2-1, 1 μM, replicate 4",0.935
same,"Seedling fresh weight (Fig3C), relative to mock","mik2-1, 1 μM, replicate 5",0.9081
same,"Seedling fresh weight (Fig3C), relative to mock","mik2-1, 1 μM, replicate 6",0.9484
same,"Seedling fresh weight (Fig3C), relative to mock","mik2-1, 1 μM, replicate 7",1.0157
same,"Seedling fresh weight (Fig3C), relative to mock","mik2-1, 1 μM, replicate 8",1.056
same,"Seedling fresh weight (Fig3C), relative to mock","mik2-1, 1 μM, replicate 9",0.972
same,"Seedling fresh weight (Fig3C), relative to mock","mik2-1, 1 μM, replicate 10",1.002
same,"Seedling fresh weight (Fig3C), relative to mock","mik2-1, 1 μM, replicate 11",1.066
same,"Seedling fresh weight (Fig3C), relative to mock","mik2-1, 1 μM, replicate 12",1.039
same,"Seedling fresh weight (Fig3C), relative to mock","mik2-1, 10 μM, replicate 1",0.8757
same,"Seedling fresh weight (Fig3C), relative to mock","mik2-1, 10 μM, replicate 2",0.9704
same,"Seedling fresh weight (Fig3C), relative to mock","mik2-1, 10 μM, replicate 3",1.224
same,"Seedling fresh weight (Fig3C), relative to mock","mik2-1, 10 μM, replicate 4",0.9062
same,"Seedling fresh weight (Fig3C), relative to mock","mik2-1, 10 μM, replicate 5",0.9941
same,"Seedling fresh weight (Fig3C), relative to mock","mik2-1, 10 μM, replicate 6",0.8622
same,"Seedling fresh weight (Fig3C), relative to mock","mik2-1, 10 μM, replicate 7",0.9772
same,"Seedling fresh weight (Fig3C), relative to mock","mik2-1, 10 μM, replicate 8",0.9028
same,"Seedling fresh weight (Fig3C), relative to mock","mik2-1, 10 μM, replicate 9",0.94
same,"Seedling fresh weight (Fig3C), relative to mock","mik2-1, 10 μM, replicate 10",1.021
same,"Seedling fresh weight (Fig3C), relative to mock","mik2-1, 10 μM, replicate 11",0.9062
same,"Seedling fresh weight (Fig3C), relative to mock","mik2-1, 10 μM, replicate 12",0.9298
YLPPSKSRKGKGP [SCOOP13],"Seedling fresh weight (Fig3C), relative to mock","Col-0, 1 μM, replicate 1",0.6301
same,"Seedling fresh weight (Fig3C), relative to mock","Col-0, 1 μM, replicate 2",0.5631
same,"Seedling fresh weight (Fig3C), relative to mock","Col-0, 1 μM, replicate 3",0.764
same,"Seedling fresh weight (Fig3C), relative to mock","Col-0, 1 μM, replicate 4",0.8644
same,"Seedling fresh weight (Fig3C), relative to mock","Col-0, 1 μM, replicate 5",0.9892
same,"Seedling fresh weight (Fig3C), relative to mock","Col-0, 1 μM, replicate 6",0.5388
same,"Seedling fresh weight (Fig3C), relative to mock","Col-0, 1 μM, replicate 7",0.6544
same,"Seedling fresh weight (Fig3C), relative to mock","Col-0, 1 μM, replicate 8",0.7792
same,"Seedling fresh weight (Fig3C), relative to mock","Col-0, 1 μM, replicate 9",0.7397
same,"Seedling fresh weight (Fig3C), relative to mock","Col-0, 1 μM, replicate 10",0.831
same,"Seedling fresh weight (Fig3C), relative to mock","Col-0, 1 μM, replicate 11",0.6483
same,"Seedling fresh weight (Fig3C), relative to mock","Col-0, 1 μM, replicate 12",0.7549
same,"Seedling fresh weight (Fig3C), relative to mock","Col-0, 10 μM, replicate 1",0.02426
same,"Seedling fresh weight (Fig3C), relative to mock","Col-0, 10 μM, replicate 2",0.03639
same,"Seedling fresh weight (Fig3C), relative to mock","Col-0, 10 μM, replicate 3",0.03942
same,"Seedling fresh weight (Fig3C), relative to mock","Col-0, 10 μM, replicate 4",0.03336
same,"Seedling fresh weight (Fig3C), relative to mock","Col-0, 10 μM, replicate 5",0.04246
same,"Seedling fresh weight (Fig3C), relative to mock","Col-0, 10 μM, replicate 6",0.03033
same,"Seedling fresh weight (Fig3C), relative to mock","Col-0, 10 μM, replicate 7",0.03639
same,"Seedling fresh weight (Fig3C), relative to mock","Col-0, 10 μM, replicate 8",0.06975
same,"Seedling fresh weight (Fig3C), relative to mock","Col-0, 10 μM, replicate 9",0.07278
same,"Seedling fresh weight (Fig3C), relative to mock","Col-0, 10 μM, replicate 10",0.04549
same,"Seedling fresh weight (Fig3C), relative to mock","Col-0, 10 μM, replicate 11",0.03942
same,"Seedling fresh weight (Fig3C), relative to mock","Col-0, 10 μM, replicate 12",0.04852
same,"Seedling fresh weight (Fig3C), relative to mock","mik2-1, 1 μM, replicate 1",0.9552
same,"Seedling fresh weight (Fig3C), relative to mock","mik2-1, 1 μM, replicate 2",1.033
same,"Seedling fresh weight (Fig3C), relative to mock","mik2-1, 1 μM, replicate 3",0.6626
same,"Seedling fresh weight (Fig3C), relative to mock","mik2-1, 1 μM, replicate 4",0.8038
same,"Seedling fresh weight (Fig3C), relative to mock","mik2-1, 1 μM, replicate 5",1.026
same,"Seedling fresh weight (Fig3C), relative to mock","mik2-1, 1 μM, replicate 6",0.9081
same,"Seedling fresh weight (Fig3C), relative to mock","mik2-1, 1 μM, replicate 7",1.002
same,"Seedling fresh weight (Fig3C), relative to mock","mik2-1, 1 μM, replicate 8",0.9854
same,"Seedling fresh weight (Fig3C), relative to mock","mik2-1, 1 μM, replicate 9",1.022
same,"Seedling fresh weight (Fig3C), relative to mock","mik2-1, 1 μM, replicate 10",1.049
same,"Seedling fresh weight (Fig3C), relative to mock","mik2-1, 1 μM, replicate 11",1.127
same,"Seedling fresh weight (Fig3C), relative to mock","mik2-1, 1 μM, replicate 12",1.002
same,"Seedling fresh weight (Fig3C), relative to mock","mik2-1, 10 μM, replicate 1",1.163
same,"Seedling fresh weight (Fig3C), relative to mock","mik2-1, 10 μM, replicate 2",0.8385
same,"Seedling fresh weight (Fig3C), relative to mock","mik2-1, 10 μM, replicate 3",1.18
same,"Seedling fresh weight (Fig3C), relative to mock","mik2-1, 10 μM, replicate 4",1.075
same,"Seedling fresh weight (Fig3C), relative to mock","mik2-1, 10 μM, replicate 5",0.8419
same,"Seedling fresh weight (Fig3C), relative to mock","mik2-1, 10 μM, replicate 6",0.8825
same,"Seedling fresh weight (Fig3C), relative to mock","mik2-1, 10 μM, replicate 7",1.082
same,"Seedling fresh weight (Fig3C), relative to mock","mik2-1, 10 μM, replicate 8",0.9738
same,"Seedling fresh weight (Fig3C), relative to mock","mik2-1, 10 μM, replicate 9",0.9332
same,"Seedling fresh weight (Fig3C), relative to mock","mik2-1, 10 μM, replicate 10",0.9569
same,"Seedling fresh weight (Fig3C), relative to mock","mik2-1, 10 μM, replicate 11",0.9941
same,"Seedling fresh weight (Fig3C), relative to mock","mik2-1, 10 μM, replicate 12",0.896
